According to patent EP1935986B1, “Luminogenic and fluorogenic compounds and methods to detect molecules or conditions” (priority 2005, dated 2006):

Key:
QuantiLum Luciferase [1] = molecular target: T1, QuantiLum Luciferase (Photinus pyralis, UniProt P08659); assay: ATP titration of firefly luciferase reactions with luciferin and fluoroluciferins; format: biochemical; details: result in words
T1 construct: purchased Promega Corporation E170
Experimental: All compounds except 5'-fluoroluciferin and DTT were purchased from Sigma Chemical. To some of this reagent 5 mM ATP (Amersham/Invitrogen) was added, then serially diluted by half-logs to 0.05 mM. Reactions were initiated by adding equal volumes (0.1 ml) of reagent and DMEM medium (Gibco/Invitrogen) containing 0.1% Prionex® (Pentapharm) and 1.4 x 10-5 mg/ml QuantiLum™ Luciferase (Promega Corporation).
For ATP titrations for 7'-fluoroluciferin, reagent was created containing 200 mM HEPES, 200 mM PIPES, 1 mM CDTA, 0.5% Tergitol NP-9, 0.03% Benzyl dodecyldimethyl ammonium bromide, 30 mM thiourea, 10 mM magnesium sulfate, and 0.15 mM 7'-fluoroluciferin. This solution was separated into 3 parts and pH of the reagents were 7.4, 7.2 and 6.7. To some of this reagent, 10 mM ATP (Amersham/Invitrogen) was added. The ATP was serially diluted by quarter-logs from 10 mM to 0.32 mM.
Reactions were initiated by adding equal volumes (0.03 ml) of reagent and DMEM medium (Gibco/Invitrogen) containing 0.1% Prionex® (Pentapharm) and 1.4 x 10-5 mg/ml QuantiLum™ Luciferase (Promega Corporation).
Luminescence was measured for 0.5 seconds per well using Berthold Orion luminometer.

QuantiLum Luciferase [2] = molecular target: T1, QuantiLum Luciferase; assay: pH dependence of firefly luciferase luminescence with luciferin or 5'-fluoroluciferin; format: biochemical; details: for Absolute Luminescence: 630 µM substrate
Experimental: Aliquots of these solutions were then placed into tubes and buffers were added to 80 mM.
Luminescent reactions were initiated by combining 100 µl of the luciferase-containing solution and 100 µl of the luciferase detection reagents. Luminescence was integrated over 1 second per sample using the Veritas plate luminometer (Turner BioSystems). N=3 for each result.
The average luminescence measured for each set of samples is listed in Table 50 (relative standard deviation ≤ 4.0%). […]

QuantiLum Luciferase [3] = molecular target: T1, QuantiLum Luciferase; assay: Emission spectra of luciferase reactions with luciferin, 5'-fluoroluciferin, 7'-fluoroluciferin; format: biochemical, firefly; details: reagent pH 7.4
Experimental: All compounds except fluoroluciferin and ATP were purchased from Sigma Chemical. ATP was purchased from Amersham/Invitrogen.
Spectra were measured using 0.5s integration with 1 nm increments on a Spex Fluorolog.

[4] = molecular target: T2, human recombinant monoamine oxidase B (MAO B) (Homo sapiens, UniProt P27338); assay: Two-step luminescent MAO assay with luciferin derivative; format: biochemical; details: fit of Tables 23-24 (TableCurve)
T2 construct: purchased Sigma Chemical Company M-7441; host or cells: baculovirus infected insect cells (microsomes)
T2 sequence (P27338 1-520): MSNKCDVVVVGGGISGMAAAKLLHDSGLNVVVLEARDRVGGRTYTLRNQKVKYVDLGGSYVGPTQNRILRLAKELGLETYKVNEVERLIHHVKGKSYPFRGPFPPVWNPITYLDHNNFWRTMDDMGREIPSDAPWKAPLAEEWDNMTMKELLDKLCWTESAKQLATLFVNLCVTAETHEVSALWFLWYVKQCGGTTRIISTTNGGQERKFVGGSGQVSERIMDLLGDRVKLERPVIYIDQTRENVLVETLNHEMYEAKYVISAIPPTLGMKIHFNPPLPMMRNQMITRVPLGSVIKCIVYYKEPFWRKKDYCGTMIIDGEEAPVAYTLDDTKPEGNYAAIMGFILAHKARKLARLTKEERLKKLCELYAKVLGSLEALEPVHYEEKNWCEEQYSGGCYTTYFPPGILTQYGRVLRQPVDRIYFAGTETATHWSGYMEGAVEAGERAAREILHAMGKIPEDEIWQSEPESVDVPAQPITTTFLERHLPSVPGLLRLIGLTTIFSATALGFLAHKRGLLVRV

[5] = molecular target: T3, human recombinant monoamine oxidase A (MAO A) (Homo sapiens, UniProt P21397); assay: as above; details: fit of Tables 23-24 (TableCurve)
T3 sequence (P21397 1-527): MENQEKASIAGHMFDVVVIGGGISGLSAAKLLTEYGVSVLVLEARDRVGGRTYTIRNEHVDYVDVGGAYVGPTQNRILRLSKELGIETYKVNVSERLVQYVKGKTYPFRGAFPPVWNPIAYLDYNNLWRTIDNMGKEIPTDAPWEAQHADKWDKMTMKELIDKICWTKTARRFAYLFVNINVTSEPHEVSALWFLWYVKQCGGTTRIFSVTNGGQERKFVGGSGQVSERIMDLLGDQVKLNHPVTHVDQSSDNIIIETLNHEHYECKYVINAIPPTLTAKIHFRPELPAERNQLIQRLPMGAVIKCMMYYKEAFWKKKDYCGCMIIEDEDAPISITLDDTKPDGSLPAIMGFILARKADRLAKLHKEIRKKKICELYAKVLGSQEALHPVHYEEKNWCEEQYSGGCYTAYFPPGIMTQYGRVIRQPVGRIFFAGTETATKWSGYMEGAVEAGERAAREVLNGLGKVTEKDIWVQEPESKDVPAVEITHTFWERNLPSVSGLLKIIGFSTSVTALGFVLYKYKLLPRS

QuantiLum Luciferase [6] = molecular target: T1, QuantiLum Luciferase; assay: Scaffolds: light emission of luciferin derivatives with QuantiLum luciferase alone, + Co A, + DTT, + Co A and DTT; format: biochemical, firefly
Experimental: The DTT, Coenzyme A, and QuantiLum stock solutions are the same as those described herein.
This solution was diluted 1:1 with water to produce an enzyme solution labeled "No addition." This solution was diluted 1:1 with 400 mM DTT, pH 8.0 to produce a solution labeled +DTT. This solution was diluted 1:1 with 4 mM Coenzyme A to produce a solution labeled + Co A. Finally, this solution was diluted 1:1 with a solution having both 4 mM Coenzyme A and 400 mM DTT to produce a solution labeled +Co A & DTT.
50 µl samples of these solutions were placed in the wells of luminometer microtiter plates, row A to row G, respeutivly. Row H of the plates was given 50 µl of water.
Reactions in these plates were initiated by addition of 50 µl of solution containing QuantiLum luciferase using a 12 channel micropipette. The solutions added to the rows were: columns 1, 5, and 9 - no addition solution; columns 2, 6, and 10 - + Co A solution; columns 3, 7, and 11 + DTT solution, and; columns 4, 8, and 12 - + Co A and DTT solution. After addition of the enzyme solution to the first row on every plate, a timer was started. After addition of the enzyme solution to the last row on each plate, the plate was sealed and read on a Veritas luminometer.

T1 sequence (P08659 whole entry): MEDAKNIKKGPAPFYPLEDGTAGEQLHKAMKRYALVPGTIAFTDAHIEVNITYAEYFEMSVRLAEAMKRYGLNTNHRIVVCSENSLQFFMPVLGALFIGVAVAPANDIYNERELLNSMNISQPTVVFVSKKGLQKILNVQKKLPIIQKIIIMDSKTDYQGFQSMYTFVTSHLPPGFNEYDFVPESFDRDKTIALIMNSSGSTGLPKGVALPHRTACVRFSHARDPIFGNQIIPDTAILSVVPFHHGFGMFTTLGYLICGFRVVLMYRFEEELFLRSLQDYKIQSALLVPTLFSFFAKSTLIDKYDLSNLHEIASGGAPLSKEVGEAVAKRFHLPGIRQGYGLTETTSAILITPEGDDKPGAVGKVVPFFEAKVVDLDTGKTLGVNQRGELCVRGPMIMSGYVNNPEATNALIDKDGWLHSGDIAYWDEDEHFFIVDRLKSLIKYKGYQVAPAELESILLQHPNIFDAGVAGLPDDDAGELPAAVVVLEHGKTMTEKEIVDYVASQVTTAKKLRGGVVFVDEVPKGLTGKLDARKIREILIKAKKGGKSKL

In the case of `O=C(O)[C@H]1CSC(c2nc3cc(F)c(O)cc3s2)=N1` [5'-fluoroluciferin], the “ATP requirement of the luciferase reaction compared with luciferin” value (QuantiLum Luciferase [1]) is reported as “saturated with ATP at a higher concentration”, the “Absolute Luminescence” value (QuantiLum Luciferase [2]; pH 6.900, MOPS) is reported as 272,127 RLU and the “change of luminescence over the pH range tested” value (QuantiLum Luciferase [2]; pH 6.9 to 8.3) is reported as “about 40%”. The “Absolute Luminescence” value (QuantiLum Luciferase [2]; pH 7.133, MOPS) was 325,337 RLU, the “Absolute Luminescence” value (QuantiLum Luciferase [2]; pH 7.296, MOPS) was 331,515 RLU and the “Absolute Luminescence” value (QuantiLum Luciferase [2]; pH 7.303, HEPES) was 323,456 RLU. For the same compound, the “Absolute Luminescence” value (QuantiLum Luciferase [2]; pH 7.499, MOPS) was 334,288 RLU, the “Absolute Luminescence” value (QuantiLum Luciferase [2]; pH 7.521, HEPES) was 360,308 RLU and the “Absolute Luminescence” value (QuantiLum Luciferase [2]; pH 7.673, Tricine) was 351,411 RLU. The “Absolute Luminescence” value (QuantiLum Luciferase [2]; pH 7.720, HEPES) was 378,927 RLU, the “Absolute Luminescence” value (QuantiLum Luciferase [2]; pH 7.883, Tricine) was 357,883 RLU and the “decrease of luminescence when buffer changed from HEPES to tricine” value (QuantiLum Luciferase [2]; pH 7.89 reagent) was 6%. The “Absolute Luminescence” value (QuantiLum Luciferase [2]; pH 7.892, HEPES) was 377,498 RLU, the “Absolute Luminescence” value (QuantiLum Luciferase [2]; pH 8.100, Tricine) was 357,041 RLU and the “Absolute Luminescence” value (QuantiLum Luciferase [2]; pH 8.327, Tricine) was 317,030 RLU. The “λmax of luminescence, blue-shifted from regular luciferin” value (QuantiLum Luciferase [3]) was “approximately 25 nm” and the “λmax of luminescence, blue-shifted from regular luciferin” value (QuantiLum Luciferase [3]; listed as 5' fluoroluciferin) was “about 10 nm”.

`NCCCOc1ccc2nc(C3=N[C@@H](C(=O)O)CS3)sc2c1` [MAO-3, 6-Aminopropoxyluciferin] was tested, and the RLUmax [4] was 660, the RLUmax [5] was 210 and the light emission values (QuantiLum Luciferase [6]; Derivative Conc. 1.07, Alone) was 94583. For the same compound, the light emission values (QuantiLum Luciferase [6]; Derivative Conc. 1.07, Co A) was 122510, the light emission values (QuantiLum Luciferase [6]; Derivative Conc. 1.07, Co A + DTT) was 52637 and the light emission values (QuantiLum Luciferase [6]; Derivative Conc. 1.07, DTT) was 111682. For the same compound, the light emission values (QuantiLum Luciferase [6]; Derivative Conc. 3.13, Alone) was 131633, the light emission values (QuantiLum Luciferase [6]; Derivative Conc. 3.13, Co A) was 176814 and the light emission values (QuantiLum Luciferase [6]; Derivative Conc. 3.13, Co A + DTT) was 171233. It also gave a light emission values (QuantiLum Luciferase [6]; Derivative Conc. 3.13, DTT) of 200074, a light emission values (QuantiLum Luciferase [6]; Derivative Conc. 6.25, Alone) of 201597 and a light emission values (QuantiLum Luciferase [6]; Derivative Conc. 6.25, Co A) of 321914. It also gave a light emission values (QuantiLum Luciferase [6]; Derivative Conc. 6.25, Co A + DTT) of 82531, a light emission values (QuantiLum Luciferase [6]; Derivative Conc. 6.25, DTT) of 348398 and a light emission values (QuantiLum Luciferase [6]; Derivative Conc. 12.5, Alone) of 252130. For the same compound, the light emission values (QuantiLum Luciferase [6]; Derivative Conc. 12.5, Co A) was 467021, the light emission values (QuantiLum Luciferase [6]; Derivative Conc. 12.5, Co A + DTT) was 509896 and the light emission values (QuantiLum Luciferase [6]; Derivative Conc. 12.5, DTT) was 525765. For the same compound, the light emission values (QuantiLum Luciferase [6]; Derivative Conc. 25, Alone) was 272608, the light emission values (QuantiLum Luciferase [6]; Derivative Conc. 25, Co A) was 588881 and the light emission values (QuantiLum Luciferase [6]; Derivative Conc. 25, DTT) was 733675. It also gave a light emission values (QuantiLum Luciferase [6]; Derivative Conc. 50, Alone) of 179585, a light emission values (QuantiLum Luciferase [6]; Derivative Conc. 50, Co A) of 444494 and a light emission values (QuantiLum Luciferase [6]; Derivative Conc. 50, Co A + DTT) of 865209. For the same compound, the light emission values (QuantiLum Luciferase [6]; Derivative Conc. 50, DTT) was 868903, the light emission values (QuantiLum Luciferase [6]; Derivative Conc. 100, Alone) was 348013 and the light emission values (QuantiLum Luciferase [6]; Derivative Conc. 100, Co A) was 741882. For the same compound, the light emission values (QuantiLum Luciferase [6]; Derivative Conc. 100, Co A + DTT) was 1019425 and the light emission values (QuantiLum Luciferase [6]; Derivative Conc. 100, DTT) was 994617.
